# Earlier results in publication PMC7330163 (Pharmacology Research & Perspectives, 2020).
# Key:
# [1] = tested on: CYP3A4; settings: man; cited from earlier work
# [2] = tested on: hepatic OATP transporters; settings: accumulates in the liver; cited from earlier work
smiles,measurement,setting,value
COc1ccccc1Oc1c(NS(=O)(=O)c2ccc(C(C)(C)C)cc2)nc(-c2ncccn2)nc1OCCO [bosentan],CYP3A4 induction in clinical use,[1],moderate CYP3A4 inducer
same,substrate of OATP,[2],is an OATP substrate
